Data: PubChem BioAssay (NCI)
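Compound exposure: 48 hours, 5 concentrations, 96-well plates. Definition used: TGI = concentration required for complete inhibition of growth.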

Tests used:
Assay in all cases: NCI tumour cell line growth inhibition, 48 h
CCRF-CEM leukemia = system: CCRF-CEM leukemia
KM12 colon = system: KM12 colon
HCT-116 colon = system: HCT-116 colon
OVCAR-3 ovarian = system: OVCAR-3 ovarian
OVCAR-4 ovarian = system: OVCAR-4 ovarian
COLO 205 colon = system: COLO 205 colon
RXF-631 renal = system: RXF-631 renal
LXFL 529 NSCLC = system: LXFL 529 NSCLC
HCT-15 colon = system: HCT-15 colon
OVCAR-8 ovarian = system: OVCAR-8 ovarian
M19-MEL melanoma = system: M19-MEL melanoma
HOP-62 NSCLC = system: HOP-62 NSCLC
SW-620 colon = system: SW-620 colon
M14 melanoma = system: M14 melanoma
TK-10 renal = system: TK-10 renal
NCI-H460 lung = system: NCI-H460 lung
SF-268 CNS = system: SF-268 CNS
UO-31 renal = system: UO-31 renal
SF-295 CNS = system: SF-295 CNS
UACC-62 melanoma = system: UACC-62 melanoma
SF-539 CNS = system: SF-539 CNS
K-562 leukemia = system: K-562 leukemia
SNB-19 CNS = system: SNB-19 CNS
EKVX NSCLC = system: EKVX NSCLC
A549 NSCLC = system: A549 NSCLC
UACC-257 melanoma = system: UACC-257 melanoma
HL-60(TB) leukemia = system: HL-60(TB) leukemia
RPMI-8226 leukemia = system: RPMI-8226 leukemia
U251 CNS = system: U251 CNS
OVCAR-5 ovarian = system: OVCAR-5 ovarian
786-0 renal = system: 786-0 renal
SNB-78 CNS = system: SNB-78 CNS
SK-MEL-2 melanoma = system: SK-MEL-2 melanoma
SNB-75 CNS = system: SNB-75 CNS
CAKI-1 renal = system: CAKI-1 renal
HCC-2998 colon = system: HCC-2998 colon
KM20L2 colon = system: KM20L2 colon
SK-OV-3 ovarian = system: SK-OV-3 ovarian
IGROV1 ovarian = system: IGROV1 ovarian
LOX IMVI melanoma = system: LOX IMVI melanoma
MALME-3M melanoma = system: MALME-3M melanoma
MOLT-4 leukemia = system: MOLT-4 leukemia
A498 renal = system: A498 renal
DMS 114 small cell lung = system: DMS 114 small cell lung
ACHN renal = system: ACHN renal
SK-MEL-5 melanoma = system: SK-MEL-5 melanoma
DLD-1 colon = system: DLD-1 colon
SK-MEL-28 melanoma = system: SK-MEL-28 melanoma
HT29 colon = system: HT29 colon
HOP-18 NSCLC = system: HOP-18 NSCLC
NCI-H226 lung = system: NCI-H226 lung
NCI-H522 lung = system: NCI-H522 lung
SN12C renal = system: SN12C renal
SR leukemia = system: SR leukemia
HOP-92 NSCLC = system: HOP-92 NSCLC
NCI-H23 lung = system: NCI-H23 lung
XF 498 CNS = system: XF 498 CNS

N#CC(/C(=N\NC(=O)c1ccncc1)C(=O)Nc1ccc([N+](=O)[O-])cc1[N+](=O)[O-])c1nc(-c2ccc(Br)cc2)cs1 (stereo not given)
TGI (CCRF-CEM leukemia): > 100 µM
TGI (KM12 colon): > 100 µM
TGI (HCT-116 colon): > 100 µM
TGI (OVCAR-3 ovarian): > 100 µM
TGI (OVCAR-4 ovarian): > 100 µM
TGI (COLO 205 colon): > 100 µM
TGI (RXF-631 renal): > 100 µM
TGI (LXFL 529 NSCLC): > 100 µM
TGI (HCT-15 colon): > 100 µM
TGI (OVCAR-8 ovarian): > 100 µM
TGI (M19-MEL melanoma): > 100 µM
TGI (HOP-62 NSCLC): > 100 µM
TGI (SW-620 colon): > 100 µM
TGI (M14 melanoma): > 100 µM
TGI (TK-10 renal): > 100 µM
TGI (NCI-H460 lung): > 100 µM
TGI (SF-268 CNS): > 100 µM
TGI (UO-31 renal): > 100 µM
TGI (SF-295 CNS): > 100 µM
TGI (UACC-62 melanoma): > 100 µM
TGI (SF-539 CNS): > 100 µM
TGI (K-562 leukemia): > 100 µM
TGI (SNB-19 CNS): > 100 µM
TGI (EKVX NSCLC): > 100 µM
TGI (A549 NSCLC): > 100 µM
TGI (UACC-257 melanoma): > 100 µM
TGI (HL-60(TB) leukemia): > 100 µM
TGI (RPMI-8226 leukemia): > 100 µM
TGI (U251 CNS): > 100 µM
TGI (OVCAR-5 ovarian): > 100 µM
TGI (786-0 renal): > 100 µM
TGI (SNB-78 CNS): > 100 µM
TGI (SK-MEL-2 melanoma): > 100 µM
TGI (SNB-75 CNS): > 100 µM
TGI (CAKI-1 renal): > 100 µM
TGI (HCC-2998 colon): > 100 µM
TGI (KM20L2 colon): > 100 µM
TGI (SK-OV-3 ovarian): > 100 µM
TGI (IGROV1 ovarian): > 100 µM
TGI (LOX IMVI melanoma): > 100 µM
TGI (MALME-3M melanoma): > 100 µM
TGI (MOLT-4 leukemia): > 100 µM
TGI (A498 renal): > 100 µM
TGI (DMS 114 small cell lung): > 100 µM
TGI (ACHN renal): > 100 µM
TGI (SK-MEL-5 melanoma): > 100 µM
TGI (DLD-1 colon): > 100 µM
TGI (SK-MEL-28 melanoma): > 100 µM

COc1cccc(NC(=O)C(C)(C)C)c1C=O
TGI (CCRF-CEM leukemia): > 100 µM
TGI (KM12 colon): > 100 µM
TGI (HCT-116 colon): > 100 µM
TGI (OVCAR-3 ovarian): > 100 µM
TGI (OVCAR-4 ovarian): > 100 µM
TGI (COLO 205 colon): > 100 µM
TGI (RXF-631 renal): > 100 µM
TGI (LXFL 529 NSCLC): > 100 µM
TGI (HCT-15 colon): > 100 µM
TGI (OVCAR-8 ovarian): > 100 µM
TGI (HT29 colon): > 100 µM
TGI (M19-MEL melanoma): > 100 µM
TGI (HOP-18 NSCLC): > 100 µM
TGI (HOP-62 NSCLC): > 100 µM
TGI (SW-620 colon): > 100 µM
TGI (M14 melanoma): > 100 µM
TGI (TK-10 renal): > 100 µM
TGI (NCI-H460 lung): > 100 µM
TGI (NCI-H226 lung): > 100 µM
TGI (SF-268 CNS): > 100 µM
TGI (UO-31 renal): 77.3 µM
TGI (NCI-H522 lung): > 100 µM
TGI (SN12C renal): > 100 µM
TGI (SF-295 CNS): > 100 µM
TGI (UACC-62 melanoma): > 100 µM
TGI (SF-539 CNS): > 100 µM
TGI (K-562 leukemia): > 100 µM
TGI (SNB-19 CNS): > 100 µM
TGI (EKVX NSCLC): > 100 µM
TGI (A549 NSCLC): > 100 µM
TGI (UACC-257 melanoma): > 100 µM
TGI (HL-60(TB) leukemia): > 100 µM
TGI (SR leukemia): > 100 µM
TGI (RPMI-8226 leukemia): > 100 µM
TGI (HOP-92 NSCLC): > 100 µM
TGI (U251 CNS): > 100 µM
TGI (OVCAR-5 ovarian): > 100 µM
TGI (786-0 renal): > 100 µM
TGI (SNB-78 CNS): > 100 µM
TGI (SK-MEL-2 melanoma): > 100 µM
TGI (SNB-75 CNS): > 100 µM
TGI (NCI-H23 lung): > 100 µM
TGI (CAKI-1 renal): > 100 µM
TGI (HCC-2998 colon): > 100 µM
TGI (KM20L2 colon): > 100 µM
TGI (SK-OV-3 ovarian): > 100 µM
TGI (IGROV1 ovarian): > 100 µM
TGI (LOX IMVI melanoma): > 100 µM
TGI (MALME-3M melanoma): > 100 µM
TGI (MOLT-4 leukemia): > 100 µM
TGI (XF 498 CNS): 85.4 µM
TGI (A498 renal): > 100 µM
TGI (DMS 114 small cell lung): > 100 µM
TGI (ACHN renal): > 100 µM
TGI (SK-MEL-5 melanoma): > 100 µM
TGI (DLD-1 colon): > 100 µM
TGI (SK-MEL-28 melanoma): > 100 µM
